Patent US7875601B2, “Cancer treatment with epothilones” (Novartis AG, priority 1998, dated 2011)
Values joined by “and” are separate entries in the source; they are usually repeats but may differ in a detail not shown here. Equal entries are not always repeated. Where two headings read alike, the source gives them in different places. Marks after values point to notes of the source that are not given here.

Assays:
[1] = system: human COLO 205 colon tumors; assay type: in vivo, female BALB/c nude mice; conditions: 4 mg/kg, day 32
Description: Female or male BALB/c nu/nu (nude) mice are kept under sterile conditions (10 to 12 mice per Type III cage) with free access to food and water. Mice weigh between 20 and 25 grams at the time of tumor implantation. Tumors are established by subcutaneous injection of cells (minimum 2×10^6 cells in 100 μl PBS or medium) in carrier mice (4-8 mice per cell line). The resulting tumors are serially passaged for a minimum of three consecutive transplantations prior to start of treatment. Tumor fragments (approx. 25 mg) are implanted s.c. into the left flank of animals with a 13-gauge trocar needle while the mice are exposed to Forene (Abbott, Switzerland) anesthesia.
Tumor growth and body weights are monitored once or twice weekly. All treatments are administered intravenously (i.v.) and are initiated when a mean tumor volume of approximately 100 to 250 mm^3 is attained, depending upon the tumor type. Tumor volumes are determined using the formula […] (see Cancer Chemother. Pharmacol. 24:148-154, [1989]). Treatments with epothilone B vary the dose and the frequency of administration. Comparator agents are administered according to previously determined optimal treatment regimens. In addition to presenting changes in tumor volumes over the course of treatment, antitumor activity is expressed as T/C % (mean increase of tumor volumes of treated animals divided by the mean increase of tumor volumes of control animals multiplied by 100). Tumor. regression (%) represents the smallest mean tumor volume compared to the mean tumor volume at the start of treatment, according to the formula Regression (%)=(1−Vend/Vstart)×100(Vend=final mean tumor volume, Vstart=mean tumor volume at the start of treatment. Any animals in which the tumor has reached a size exceeding approximately 1.5 to 2.5 cm^3 are sacrificed. Details can be found below.

[2] = system: A549 non-small cell lung tumors; assay: Antitumor activity on A549 tumors, once weekly dosing (Example 8); assay type: in vivo, outbred athymic (nu/nu) mice; conditions: for body weight loss: 3 weeks experiment, reversible
Text: Materials and methods pertaining to the human tumor xenograft model are as previously described.
Measurements are taken for an additional 2 weeks after completion of the regular 3 weeks experiments, to evaluate reversibility of drug-induced body weight loss, and sustainability of antitumor effects.

[3] = Determination of the single i.v. dose MTD in normal female BALB/c mice; assay type: in vivo
Description: (§1) The Maximal Tolerated Dose (MTD) is determined according to standard procedures; preferably, in warm-blooded animals the MTD in case of oral or intravenous administration is determined as the Dose of a single administration where no death occurs and a loss of body weight of less than 40, preferably less than 25, percent (%) is found in the treated warm-blooded animal individual (this term here mainly referring to an animal; for humans see below).
(§2) For the MTD determination, female BALB/c nude mice or BALB/c mice (obtained from Novartis Animal Farm, Sisseln, Switzerland) are treated once intravenously with epothilone B (n=3 per dose group). The dosage is increased (2, 4, 6, 8, 10 and 12 mg/kg) and the mice are observed for the presentation of overt toxic effects for 10 days after drug treatment.

[4] = Determination of the single i.v. dose MTD in female BALB/c nude mice; assay type: in vivo
Description: as §1, §2

[5] = 1 mg/kg i.v. once weekly for 3 weeks, day 34
[6] = 1 mg/kg once weekly for 3 weeks, extended observation, day 48
[7] = 2 mg/kg i.v. once weekly for 3 weeks, day 34
[8] = 2 mg/kg once weekly for 3 weeks, extended observation, day 48
[9] = 3 mg/kg i.v. once weekly for 3 weeks, day 34
[10] = 3 mg/kg once weekly for 3 weeks, extended observation, day 48
[11] = 3.5 mg/kg i.v. once weekly for 3 weeks, day 34
[12] = 3.5 mg/kg once weekly for 3 weeks, extended observation, day 48
[13] = 2 mg/kg single i.v. bolus, Experiment 2
[14] = 4 mg/kg single i.v. bolus, Experiment 2
[15] = 6 mg/kg single i.v. bolus, Experiment 1
[16] = 6 mg/kg single i.v. bolus, Experiment 2
[17] = 8 mg/kg single i.v. bolus, Experiment 1
[18] = 8 mg/kg single i.v. bolus, Experiment 2
[19] = 10 mg/kg single i.v. bolus, Experiment 1
[20] = 12 mg/kg single i.v. bolus, Experiment 1

For `C/C(=C\c1csc(C)n1)[C@@H]1C[C@@H]2O[C@]2(C)CCC[C@H](C)[C@H](O)[C@@H](C)C(=O)C(C)(C)[C@@H](O)CC(=O)O1` [epothilone B], the T/C ([1]; i.v. every 7 days (days 14, 21, 28)) was “Regressions”, the “% Body Weight Change” value ([1]; i.v. every 7 days) was −18 ± 1% and the Regression ([1]; i.v. every 7 days) was −87%. For the same compound, the “Survival (No. alive/total)” value ([1]; i.v. every 7 days) was 5/7, the “Δ Body Weight” value ([1]; i.v. every 7 days) was -4.0 ± 0.2 g and the “Δ Tumor Volume (mm^3)” value ([1]; i.v. every 7 days) was −83 ± 7 mm^3. For the same compound, the T/C ([1]; i.v. every 14 days (days 14 and 28)) was “Regressions”, the “% Body Weight Change” value ([1]; i.v. every 14 days) was −4 ± 4% and the Regression ([1]; i.v. every 14 days) was −69%. The “Survival (No. alive/total)” value ([1]; i.v. every 14 days) was 7/7, the “Δ Body Weight” value ([1]; i.v. every 14 days) was -1.1 ± 1.0 g and the “Δ Tumor Volume (mm^3)” value ([1]; i.v. every 14 days) was −62 ± 7 mm^3. For the same compound, the “% Body Weight Change” value ([1]; i.v. once) was 9 ± 1%, the Regression ([1]; i.v. once) was −66% and the “Survival (No. alive/total)” value ([1]; i.v. once) was 5/7. The T/C ([1]; i.v. once) was “Regressions”, the “Δ Body Weight” value ([1]; i.v. once) was 2.0 ± 0.1 g and the “Δ Tumor Volume (mm^3)” value ([1]; i.v. once) was −58 ± 11 mm^3. The “% T/C” value [2, 5] was 74% and 74^*,** %, the Dead/Total [2, 5] was 0/8 and the “Delta % Body Weight” value [2, 5] was “+10.8%”. For the same compound, the “Delta Mean Tumor Vol. (mm^3 ± SEM)” value [2, 5] was 195 ± 21 mm^3, the Dead/Total [2, 6] was 0/8 and the “Delta % Body Weight” value [2, 6] was “+12.6%”. The “Delta Mean Tumor Vol. (mm^3 ± SEM)” value [2, 6] was 339 ± 24 mm^3, the “% T/C” value ([2]; 1 mg/kg once weekly for 3 weeks, extended observation, day 48 (week 5)) was 72% and the “% T/C” value [2, 7] was 43% and 43*^,** %. For the same compound, the Dead/Total [2, 7] was 0/8, the “Delta % Body Weight” value [2, 7] was “+0.9%” and the “Delta Mean Tumor Vol. (mm^3 ± SEM)” value [2, 7] was 113 ± 21 mm^3. The Dead/Total [2, 8] was 0/8, the “Delta % Body Weight” value [2, 8] was “+13.5%” and the “Delta Mean Tumor Vol. (mm^3 ± SEM)” value [2, 8] was 232 ± 39 mm^3. For the same compound, the “% T/C” value ([2]; 2 mg/kg once weekly for 3 weeks, extended observation, day 48 (week 5)) was 49* %, the “% T/C” value [2, 9] was 23% and 23*^,** % and the Dead/Total [2, 9] was 0/8. For the same compound, the “Delta % Body Weight” value [2, 9] was −16.4%, the “Delta Mean Tumor Vol. (mm^3 ± SEM)” value [2, 9] was 60 ± 22 mm^3 and the Dead/Total [2, 10] was 0/8. The “Delta % Body Weight” value [2, 10] was “+13.2%”, the “Delta Mean Tumor Vol. (mm^3 ± SEM)” value [2, 10] was 75 ± 25 mm^3 and the “% T/C” value ([2]; 3 mg/kg once weekly for 3 weeks, extended observation, day 48 (week 5)) was 16*^,** %. For the same compound, the body weight loss ([2]; 3 mg/kg once weekly) was “approximately 15%”, the “% T/C” value [2, 11] was 15% and 15*^,** % and the Dead/Total [2, 11] was 0/8. The “Delta % Body Weight” value [2, 11] was −14.6%, the “Delta Mean Tumor Vol. (mm^3 ± SEM)” value [2, 11] was 40 ± 15 mm^3 and the Dead/Total [2, 12] was 0/8. For the same compound, the “Delta % Body Weight” value [2, 12] was “+9.7%”, the “Delta Mean Tumor Vol. (mm^3 ± SEM)” value [2, 12] was 58 ± 25 mm^3 and the “% T/C” value ([2]; 3.5 mg/kg once weekly for 3 weeks, extended observation, day 48 (week 5)) was 12*^,** %. For the same compound, the body weight loss ([2]; 3.5 mg/kg once weekly) was “approximately 15%”, the “Body Weight % Change” value [3, 13] was 12.3 ± 3.0% and the “Body Weight Δ (mean g ± SD)” value [3, 13] was 2.3 ± 0.6 g. For the same compound, the Mortalities [3, 13] was 0/3, the “Body Weight % Change” value [3, 14] was 6.5 ± 2.6% and the “Body Weight Δ (mean g ± SD)” value [3, 14] was 1.3 ± 0.6 g. The Mortalities [3, 14] was 0/3, the “Body Weight % Change” value [3, 15] was −28.6 ± 3.5% and the “Body Weight Δ (mean g ± SD)” value [3, 15] was -6.1 ± 0.9 g. For the same compound, the Mortalities [3, 15] was 1/3, the “Body Weight % Change” value [3, 16] was −27.5 ± 2.1% and the “Body Weight Δ (mean g ± SD)” value [3, 16] was -5.3 ± 0.6 g. The Mortalities [3, 16] was 2/3, the “Body Weight % Change” value [3, 17] was −22.1 ± 13.1% and the “Body Weight Δ (mean g ± SD)” value [3, 17] was -5.1 ± 3.2 g. The Mortalities [3, 17] was 3/3, the “Body Weight % Change” value [3, 18] was −25.3 ± 3.9% and the “Body Weight Δ (mean g ± SD)” value [3, 18] was -5.0 ± 1.0 g. For the same compound, the Mortalities [3, 18] was 3/3, the “Body Weight % Change” value [3, 19] was −24.9 ± 1.6% and the “Body Weight Δ (mean g ± SD)” value [3, 19] was -5.6 ± 0.6 g. The Mortalities [3, 19] was 3/3, the “Body Weight % Change” value [3, 20] was −23.6 ± 11.9% and the “Body Weight Δ (mean g ± SD)” value [3, 20] was -5.4 ± 2.9 g. For the same compound, the Mortalities [3, 20] was 3/3, the MTD ([3]; single dose i.v., normal mice) was 4 mg/kg and the “Body Weight % Change” value ([4]; 2 mg/kg single i.v. bolus) was 4.2 ± 2.1%. The “Body Weight Δ (mean g ± SD)” value ([4]; 2 mg/kg single i.v. bolus) was 1.0 ± 0.5 g, the Mortalities ([4]; 2 mg/kg single i.v. bolus) was 0/3 and the “Body Weight % Change” value ([4]; 4 mg/kg single i.v. bolus) was −1.7 ± 2.9%. For the same compound, the “Body Weight Δ (mean g ± SD)” value ([4]; 4 mg/kg single i.v. bolus) was -0.4 ± 0.6 g, the Mortalities ([4]; 4 mg/kg single i.v. bolus) was 0/3 and the “Body Weight % Change” value ([4]; 6 mg/kg single i.v. bolus) was −4.2 ± 2.1%. For the same compound, the “Body Weight Δ (mean g ± SD)” value ([4]; 6 mg/kg single i.v. bolus) was -1.0 ± 0.5 g, the Mortalities ([4]; 6 mg/kg single i.v. bolus) was 0/3 and the “Body Weight % Change” value ([4]; 8 mg/kg single i.v. bolus) was −16.8 ± 12.2%. For the same compound, the “Body Weight Δ (mean g ± SD)” value ([4]; 8 mg/kg single i.v. bolus) was -3.8 ± 2.7 g, the Mortalities ([4]; 8 mg/kg single i.v. bolus) was 1/3 and the “Body Weight % Change” value ([4]; 10 mg/kg single i.v. bolus) was −23.7 ± 13.6%. The “Body Weight Δ (mean g ± SD)” value ([4]; 10 mg/kg single i.v. bolus) was -5.6 ± 3.3 g, the Mortalities ([4]; 10 mg/kg single i.v. bolus) was 1/3 and the “Body Weight % Change” value ([4]; 12 mg/kg single i.v. bolus) was −22.9 ± 3.1%. For the same compound, the “Body Weight Δ (mean g ± SD)” value ([4]; 12 mg/kg single i.v. bolus) was -5.1 ± 0.6 g, the Mortalities ([4]; 12 mg/kg single i.v. bolus) was 3/3 and the MTD ([4]; single dose i.v., nude mice) was 6 mg/kg.
